Test results as given in the supplement of paper PMC10307832.

Assays:
Experiment in all cases: relative viability (nuclei count vs DMSO), 5 days (fraction); higher = more cells survive
MLN4924 + Decitabine = compound: NS(=O)(=O)OC[C@@H]1C[C@@H](n2ccc3c(N[C@H]4CCc5ccccc54)ncnc32)C[C@@H]1O [MLN4924] + Nc1ncn([C@H]2C[C@H](O)[C@@H](CO)O2)c(=O)n1 [Decitabine] (partner 2 µM)
Method in brief: (§1)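 For relative viability, nuclei counts in treated wells were divided by those in vehicle wells. Lung cancer cell lines had been pin-tool dosed in 1536-well plates the day after seeding and cultured for 5 days, then fixed and stained in one step (final 0.05% Triton X-100, 1% formaldehyde, 1 ug/ml Hoechst) and imaged at 4×. Doses were one drug alone or a fixed anchor-drug dose plus five library-drug doses (not always all listed) in √10 steps, and values are duplicate-plate medians.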

GSK126 + OSI-027 = compound: CC[C@H](C)N1C=C(C2=C(C=C(C=C21)C3=CN=C(C=C3)N4CCNCC4)C(=O)NCC5=C(C=C(NC5=O)C)C)C [GSK126] + COc1cccc2cc(-c3nc([C@H]4CC[C@H](C(=O)O)CC4)n4ncnc(N)c34)[nH]c12 [OSI-027] (partner 0.5 µM)
Method in brief: as §1

Carboplatin + Tozasertib = compound: C1CC(C1)(C(=O)O)C(=O)O.[NH2-].[NH2-].[Pt+2] [Carboplatin] + Cc1cc(Nc2cc(N3CCN(C)CC3)nc(Sc3ccc(NC(=O)C4CC4)cc3)n2)n[nH]1 [Tozasertib] (partner 0.1 µM)
Method in brief: as §1

MLN4924 + Linsitinib = compound: NS(=O)(=O)OC[C@@H]1C[C@@H](n2ccc3c(N[C@H]4CCc5ccccc54)ncnc32)C[C@@H]1O [MLN4924] + C[C@]1(O)C[C@@H](c2nc(-c3ccc4ccc(-c5ccccc5)nc4c3)c3c(N)nccn32)C1 [Linsitinib] (partner 1 µM)
Method in brief: as §1

| Cell Line | relative viability (MLN4924 + Decitabine; first compound 0.04 µM) | relative viability (MLN4924 + Decitabine; first compound 0.1265 µM) | relative viability (MLN4924 + Decitabine; first compound 0.4 µM) | relative viability (MLN4924 + Decitabine; first compound 1.265 µM) | relative viability (MLN4924 + Decitabine; first compound 4 µM) | relative viability (GSK126 + OSI-027; first compound 0.08 µM) | relative viability (GSK126 + OSI-027; first compound 0.253 µM) | relative viability (GSK126 + OSI-027; first compound 0.8 µM) | relative viability (GSK126 + OSI-027; first compound 2.53 µM) | relative viability (GSK126 + OSI-027; first compound 8 µM) | relative viability (Carboplatin + Tozasertib; first compound 0.08 µM) | relative viability (Carboplatin + Tozasertib; first compound 0.253 µM) | relative viability (Carboplatin + Tozasertib; first compound 0.8 µM) | relative viability (Carboplatin + Tozasertib; first compound 2.53 µM) | relative viability (Carboplatin + Tozasertib; first compound 8 µM) | relative viability (MLN4924 + Linsitinib; first compound 0.04 µM) | relative viability (MLN4924 + Linsitinib; first compound 0.1265 µM) | relative viability (MLN4924 + Linsitinib; first compound 0.4 µM) | relative viability (MLN4924 + Linsitinib; first compound 1.265 µM) | relative viability (MLN4924 + Linsitinib; first compound 4 µM) |
| --- | --- | --- | --- | --- | --- | --- | --- | --- | --- | --- | --- | --- | --- | --- | --- | --- | --- | --- | --- | --- |
| NCI-H2023 | 0.177 | 0.178 | 0.119 | 0.0603 | 0.062 | 0.595 | 0.388 | 0.447 | 0.495 | 0.527 | 0.419 | 0.394 | 0.402 | 0.262 | 0.158 | 0.661 | 0.36 | 0.112 | 0.0836 | 0.0754 |
| NCI-H1395 | 0.704 | 0.596 | 0.461 | 0.359 | 0.346 | 0.679 | 0.561 | 0.648 | 0.704 | 0.649 | 0.721 | 0.733 | 0.65 | 0.646 | 0.566 | 0.991 | 0.771 | 0.605 | 0.384 | 0.377 |
| NCI-H2347 | 0.623 | 0.694 | 0.495 | 0.413 | 0.335 | 0.433 | 0.356 | 0.49 | 0.463 | 0.346 | 0.54 | 0.547 | 0.637 | 0.633 | 0.56 | 0.908 | 0.731 | 0.57 | 0.424 | 0.41 |
| LXF-289 | 0.346 | 0.323 | 0.28 | 0.183 | 0.133 | 0.838 | 0.86 | 0.784 | 0.877 | 0.768 | 0.199 | 0.209 | 0.22 | 0.218 | 0.177 | 0.785 | 0.645 | 0.417 | 0.224 | 0.143 |
| EMC-BAC-2 | 0.829 | 0.663 | 0.428 | 0.219 | 0.264 | 0.398 | 0.381 | 0.397 | 0.379 | 0.373 | 0.313 | 0.292 | 0.275 | 0.266 | 0.326 | 0.805 | 0.547 | 0.237 | 0.179 | 0.163 |
| LC-2-ad | 0.791 | 0.748 | 0.585 | 0.508 | 0.322 | 1.02 | 0.868 | 0.902 | 0.862 | 0.985 | 0.482 | 0.433 | 0.496 | 0.372 | 0.374 | 0.854 | 0.533 | 0.281 | 0.162 | 0.13 |
| ABC-1 | 1.12 | 1.33 | 0.929 | 0.28 | 0.402 | 0.462 | 0.525 | 0.532 | 0.492 | 0.539 | 0.208 | 0.201 | 0.164 | 0.186 | 0.207 | 0.875 | 0.795 | 0.618 | 0.238 | 0.218 |
| NCI-H647 | 0.363 | 0.221 | 0.142 | 0.0732 | 0.0787 | 0.69 | 0.528 | 0.63 | 0.649 | 0.692 | 0.402 | 0.488 | 0.272 | 0.239 | 0.229 | 0.709 | 0.499 | 0.137 | 0.0815 | 0.0619 |
| NCI-H1734 | 0.514 | 0.472 | 0.197 | 0.141 | 0.135 | 0.681 | 0.532 | 0.665 | 0.579 | 0.602 | 0.289 | 0.295 | 0.31 | 0.242 | 0.26 | 1.01 | 1.09 | 0.519 | 0.178 | 0.155 |
| LOU-NH91 | 0.793 | 0.797 | 0.684 | 0.557 | 0.523 | 0.728 | 0.735 | 0.751 | 0.681 | 0.787 | 0.727 | 0.807 | 0.671 | 0.63 | 0.637 | 1.01 | 1.14 | 0.961 | 0.561 | 0.472 |
| NCI-H1793 | 0.49 | 0.463 | 0.482 | 0.318 | 0.195 | 0.288 | 0.241 | 0.318 | 0.248 | 0.32 | 0.446 | 0.386 | 0.301 | 0.317 | 0.501 | 1.12 | 0.857 | 0.845 | 0.327 | 0.168 |
| NCI-H441 | 0.253 | 0.241 | 0.22 | 0.158 | 0.175 | 0.949 | 0.686 | 0.637 | 0.677 | 0.543 | 0.746 | 0.687 | 0.508 | 0.454 | 0.469 | 0.47 | 0.374 | 0.205 | 0.111 | 0.159 |
| RERF-LC-KJ | 0.592 | 0.497 | 0.24 | 0.182 | 0.236 | 0.648 | 0.66 | 0.597 | 0.652 | 0.575 | 0.553 | 0.471 | 0.483 | 0.406 | 0.386 | 0.64 | 0.463 | 0.198 | 0.188 | 0.234 |
| H3255 | 0.469 | 0.392 | 0.338 | 0.228 | 0.218 | 0.573 | 0.568 | 0.578 | 0.666 | 0.583 | 0.829 | 0.603 | 0.577 | 0.52 | 0.525 | 0.927 | 0.593 | 0.354 | 0.201 | 0.257 |
| A-427 | 0.445 | 0.421 | 0.309 | 0.282 | 0.265 | 0.491 | 0.515 | 0.43 | 0.409 | 0.456 | 0.188 | 0.237 | 0.238 | 0.219 | 0.221 | 0.686 | 0.381 | 0.315 | 0.222 | 0.217 |
